Data set [1] concerns CYP1A1. Briefly: Induction of CYP1A1 enzyme in HepG2 cells, EROD assay. To be noted: human, probe 7-ethoxyresorufin (8 μM). The format is cell-based, human. The method, then:
(§1) The formation of resorufin is quantified by fluorometry with a fluorescence plate reader. Fluorescence is determined at λex 570 nm and λem 590 nm. The amount of resorufin is calculated from a standard curve generated using 0 to 1 μM resorufin in water at ½ log dilutions. The remaining (i.e. all cells present at the beginning of analysis, since only supernatant is taken to assay EROD) live cells are subsequently utilized for the MIT cytotoxicity assay. MTT is made up in serum-free medium at 5 mg/ml. then added to the cells giving a final concentration of 10% (0.5 mg/ml MTT final) then incubated for 2 h. The medium is carefully removed, then MTT formazan is solubilized by adding 200 μl of DMSO and subsequently mixed on a plate shaker. The absorbance is measured spectra photometrically at 550 nm and background absorbance at 690 nm is subtracted. A standard curve generated using MIT formazan (dissolved in DMSO) from O—200 μM (0, 2, 5, 10, 20, 50, 100, 200 μM) is used to calculate the final experimental values which are then expressed as (wnol resarufin/mol MTT formazan) or as fold-Induction compared to solvent.

In the next data set the test system is HepG2 cells. Briefly: MTT cytotoxicity assay in HepG2 cells after EROD. The format is cell-based, human. The method, then: as §1, with “subtracted.” for “subtracted. A standard curve generated using MIT formazan (dissolved in DMSO) from O—200 μM (0, 2, 5, 10, 20, 50, 100, 200 μM) is used to calculate the final experimental values which are then expressed as (wnol resarufin/mol MTT formazan) or as fold-Induction compared to solvent.”
(In general: Formazan colour is commonly taken as a measure of viable cells.)

In data set [2] the test system is CYP1A1. Description: Induction of CYP1A1 enzyme in human cultured sebocytes, EROD assay. The format is cell-based. To be noted: cultured sebocytes, probe 7-ethoxyresorufin (8 μM). The method, then: Cells are seeded at between 1×10^4 and 2.5×10^4 cells/well in a 96-well microtitre plate. […] 100 μl of medium is then transferred to a fresh black 96-well plate and 130 μl methanol added. The formation of resorufin is quantified by fluorometry with a fluorescence plate reader. Fluorescence is determined at λex 570 nm and λem 590 nm. The amount of resorufin is calculated from a standard curve generated using 0 to 1 μM resorufin in water at ½ log dilutions. The remaining (i.e. all cells present at the beginning of analysis, since only supernatant is taken to assay EROD) live cells are subsequently utilized for the MU cytotoxicity assay. MU is made up in serum-free medium at 5 mg/mi. then added to the cells giving a final concentration of 10% (0.5 mg/ml MIT final) then incubated for 2 h. The medium is carefully removed, then MIT formazan is solubilized by adding 200 μl of DMSO and subsequently mixed on a plate shaker. The absorbance is measured spectrophotometrically at 550 nm and background absorbance at […] is subtracted. A standard curve generated using MTT formazan (dissolved in DMSO) from O—200 μM (0, 2, 5, 10, 20, 50, 100, 200 μM) is used to calculate the final experimental values which are then expressed as (μmol resorufin/mol MTT formazan) or as fold-induction compared to solvent.

The next data set concerns human sebocyte cells. Description: MTT cytotoxicity assay in human cultured sebocytes after EROD. Type of data set: cell-based. The method, then:
The essential methodology for culture and handling of human cultured sebocytes has been described in earlier examples for HEPG2 and NHK cells. Cells are seeded at between 1×10^4 and 2.5×10^4 cells/well in a 96-well microtitre plate. […] The formation of resorufin is quantified by fluorometry with a fluorescence plate reader. Fluorescence is determined at λex 570 nm and λem 590 nm. The amount of resorufin is calculated from a standard curve generated using 0 to 1 μM resorufin in water at ½ log dilutions. The remaining (i.e. all cells present at the beginning of analysis, since only supernatant is taken to assay EROD) live cells are subsequently utilized for the MU cytotoxicity assay. MU is made up in serum-free medium at 5 mg/mi. then added to the cells giving a final concentration of 10% (0.5 mg/ml MIT final) then incubated for 2 h. The medium is carefully removed, then MIT formazan is solubilized by adding 200 μl of DMSO and subsequently mixed on a plate shaker. The absorbance is measured spectrophotometrically at 550 nm and background absorbance at […] is subtracted. A standard curve generated using MTT formazan (dissolved in DMSO) from O—200 μM (0, 2, 5, 10, 20, 50, 100, 200 μM) is used to calculate the final experimental values which are then expressed as (μmol resorufin/mol MTT formazan) or as fold-induction compared to solvent.

Another data set deals with sebaceous glands. Briefly: Mouse ear assay for determination of sebaceous gland prevalence. Type of data set: in vivo. To be noted: C57BL/6 mice, ears, 1% solution in DMSO:acetone 50:50 twice a day for five days, vs controls. The method, then: C57BL/6.I male mice (Harlan Models), approximately 4-5 weeks of age, body weight 20-30 g, were acclimatized (individually housed) for 5 days in a 12 hour light/dark cycle standard laboratory environment (T=20-24° C., relative humidity 30-70%, 15-20 air changes per hour) with access to water and standard rodent chow (Harlan Teklad 2014C supplied by Harlan Laboratories Models, S.L.) ad libitum. Animals were anesthetized with isoflurane and the test article (80 ul, 1% solution in DMSO:acetone 50:50) was administered to the outer surface of each of the ears of between 2 and 5 mice twice a day for five days by dermal application using a micropipette tip (a little volume of the solution was also applied on the inner side of the ears). All animals were monitored daily for reaction to the treatment, signs of illness, and behavioral changes. Body weights were recorded before the first administration and immediately prior to sacrifice. Approximately 12 to 16 hours after the final administration on day 5 the mice were sacrificed by i.p. injection of sodium pentobarbital (200 mg/kg) and the ears were collected. Each ear was sectioned into two halves. For each animal, one-half of one ear was fixed, in neutral phosphate-buffered 4% formaldehyde solution (4% formalin). This trimmed section of the ear was then processed, embedded in paraffin wax and stored at room temperature. […]

The structures appear in SMILES notation.

For the compound `O=c1c(-c2ccccc2)coc2ccc3ccccc3c12` [Compound B], the EC50 (usually the midpoint of the concentration-response curve) at 24 h was 1000 nM in the data set with CYP1A1 [1] and 50 nM in the data set with CYP1A1 [2]. Moreover, the Toxicity threshold with HepG2 cells and in the data set on human sebocyte cells was more than 30 µM in each case. The “number of differentiated sebocytes” value in the data set on sebaceous glands is “reduction”. In the data set on sebaceous glands, the “number of sebaceous glands” value is “clear reduction”.

Regarding `COc1ccccc1-c1coc2ccc3ccccc3c2c1=O` [Compound F], the EC50 at 24 h came to 2000 nM in the data set with CYP1A1 [1] and 200 nM with CYP1A1 [2]. Besides, the Toxicity threshold in the data set with HepG2 cells is more than 30 µM; in the data set on human sebocyte cells it was 50 µM.

For `COc1cccc(-c2coc3ccc4ccccc4c3c2=O)c1` [Compound G], the EC50 at 24 h came out at 2000 nM with CYP1A1 [1] and 250 nM with CYP1A1 [2]. Also, the Toxicity threshold in the data set with HepG2 cells is 100 µM; in the data set on human sebocyte cells, 30 µM.

`O=c1c(-c2cccc(O)c2)coc2ccc3ccccc3c12` [Compound H]: the EC50 at 24 h was 1500 nM with CYP1A1 [1] and 250 nM in the data set on CYP1A1 [2]. In addition, the Toxicity threshold in the data set with HepG2 cells is more than 100 µM; with human sebocyte cells, more than 30 µM.

Turning to `O=c1c(-c2ccc(O)cc2)coc2ccc3ccccc3c12` [Compound J], the EC50 at 24 h came out at 1500 nM in the data set on CYP1A1 [1] and 50 nM in the data set with CYP1A1 [2]. In addition, the Toxicity threshold is 100 µM in the data set on HepG2 cells and more than 30 µM in the data set with human sebocyte cells.

(Values after US20180118707A1, “BETA-NAPHTHOISOFLAVONES, COMPOSITIONS CONTAINING, AND USES OF, SAME” (Thesan Pharmaceuticals, Inc., priority 2015, published 2018).)
